Laboratory results reported in patent US12102615B2 (THE TEXAS A&M UNIVERSITY SYSTEM, priority 2018, dated 2024).
≈ marks a conversion by molar mass, not a printed value. Where “and” joins values, the source holds several entries; their conditions need not be identical. Equal values may be shown once. Read-outs that look alike come from different tables or passages of the source.

Tests used:
[1] = system: Fluconazole resistant C. albicans and C. glabrata; experiment: MIC against fluconazole resistant isolates; type: cell-based
Experimental: (§1) Minimum inhibitory concentration (MIC) susceptibility testing was performed according to the CLSI M27-A3 and M38-A2 standards for the susceptibility testing of yeasts and filamentous fungi, respectively. Incubation temperature was at 35° C. and the inoculum size was 0.5-2.5×10^3 colony-forming units (CFU)/mL and 0.4-5×10^4 conidia/mL for yeasts and filamentous fungi, respectively. Inoculum concentration for dermatophytes was 1-3×10^3 conidia/mL. RPMI was used throughout as the growth medium and Cryptococcus strains were tested in YNB. […] Voriconazole MICs were recorded at 80% inhibition after 96 hours of incubation for dermatophytes. S. cerevisiae deletion mutants were obtained from the commercially available BY4741 deletion library (Thermo Scientific). Susceptibility testing was carried out on inoculum size of 0.5-1×10^4 cells/ml in YPD media at 30° C. and MICs recorded after 48 and 60 hours.

[2] = system: Trichophyton rubrum 11199; experiment: MIC susceptibility testing (CLSI M38-A2); type: cell-based
Experimental: as §1

[3] = system: Trichophyton mentagrophytes 10207; experiment: MIC susceptibility testing (CLSI M38-A2); type: cell-based
Experimental: as §1

[4] = system: Trichophyton rubrum 28659; experiment: MIC susceptibility testing (CLSI M38-A2); type: cell-based
Experimental: as §1

[5] = system: Trichophyton mentagrophytes 28556; experiment: MIC susceptibility testing (CLSI M38-A2); type: cell-based
Experimental: as §1

[6] = system: Trichophyton mentagrophytes 28641; experiment: MIC susceptibility testing (CLSI M38-A2); type: cell-based
Experimental: as §1

[7] = system: Trichophyton rubrum 28658; experiment: MIC susceptibility testing (CLSI M38-A2); type: cell-based
Experimental: as §1

Candida albicans 23512 = experiment: MIC susceptibility testing (CLSI M27-A3); type: cell-based; details: Candida albicans, 23512, 24 h, read-out: Fluconazole MIC
Experimental: as §1

Candida krusei 28415 = experiment: MIC susceptibility testing (CLSI M27-A3); type: cell-based; details: Pichia kudriavzevii, 28415, 24 h, read-out: Fluconazole MIC
Experimental: as §1

Candida tropicalis 28272 = experiment: MIC susceptibility testing (CLSI M27-A3); type: cell-based; details: Candida tropicalis, 28272, 24 h, read-out: Fluconazole MIC
Experimental: as §1

Candida krusei 9541 = experiment: MIC susceptibility testing (CLSI M27-A3); type: cell-based; details: Pichia kudriavzevii, 9541, 24 h, read-out: Fluconazole MIC
Experimental: as §1

Candida glabrata 27243 = experiment: MIC susceptibility testing (CLSI M27-A3); type: cell-based; details: Nakaseomyces glabratus, 27243, 24 h, read-out: Fluconazole MIC
Experimental: as §1

[8] = system: Candida parapsilosis 28174; experiment: MIC susceptibility testing (CLSI M27-A3); type: cell-based; details: Lodderomyces parapsilosis, 28174, 24 h, read-out: Fluconazole MIC
Experimental: as §1

Candida tropicalis 28478 = experiment: MIC susceptibility testing (CLSI M27-A3); type: cell-based; details: Candida tropicalis, 28478, 24 h, read-out: Fluconazole MIC
Experimental: as §1

Candida glabrata 28271 = experiment: MIC susceptibility testing (CLSI M27-A3); type: cell-based; details: Nakaseomyces glabratus, 28271, 24 h, read-out: Fluconazole MIC
Experimental: as §1

Candida albicans 28200 = experiment: MIC susceptibility testing (CLSI M27-A3); type: cell-based; details: Candida albicans, 28200, 24 h, read-out: Fluconazole MIC
Experimental: as §1

Candida krusei 28570 = experiment: MIC susceptibility testing (CLSI M27-A3); type: cell-based; details: Pichia kudriavzevii, 28570, 24 h, read-out: Fluconazole MIC
Experimental: as §1

[9] = system: Cryptococcus neoformans 28446; experiment: MIC susceptibility testing (CLSI M27-A3); type: cell-based; details: Cryptococcus neoformans, 28446, 72 h, read-out: Fluconazole MIC
Experimental: as §1

[10] = system: Candida parapsilosis 28364; experiment: MIC susceptibility testing (CLSI M27-A3); type: cell-based; details: Lodderomyces parapsilosis, 28364, 24 h, read-out: Fluconazole MIC
Experimental: as §1

Candida albicans 28102 = experiment: MIC susceptibility testing (CLSI M27-A3); type: cell-based; details: Candida albicans, 28102, 24 h, read-out: Fluconazole MIC
Experimental: as §1

[11] = system: Cryptococcus neoformans 19526; experiment: MIC susceptibility testing (CLSI M27-A3); type: cell-based; details: Cryptococcus neoformans, 19526, 72 h, read-out: Fluconazole MIC
Experimental: as §1

[12] = system: Cryptococcus neoformans 27708; experiment: MIC susceptibility testing (CLSI M27-A3); type: cell-based; details: Cryptococcus neoformans, 27708, 72 h, read-out: Fluconazole MIC
Experimental: as §1

[13] = system: Candida parapsilosis 2006; experiment: MIC susceptibility testing (CLSI M27-A3); type: cell-based; details: Lodderomyces parapsilosis, 2006, 24 h, read-out: Fluconazole MIC
Experimental: as §1

Candida glabrata 25742 = experiment: MIC susceptibility testing (CLSI M27-A3); type: cell-based; details: Nakaseomyces glabratus, 25742, 24 h, read-out: Fluconazole MIC
Experimental: as §1

Candida tropicalis 9624 = experiment: MIC susceptibility testing (CLSI M27-A3); type: cell-based; details: Candida tropicalis, 9624, 24 h, read-out: Fluconazole MIC
Experimental: as §1

[14] = system: Rhizopus microsporus 28506; experiment: MIC susceptibility testing (CLSI M38-A2); type: cell-based; details: Rhizopus microsporus, 28506, 24 h, read-out: Voriconazole MIC
Experimental: as §1

Fusarium solani 28386 = experiment: MIC susceptibility testing (CLSI M38-A2); type: cell-based; details: Fusarium solani, 28386, 48 h, read-out: Voriconazole MIC
Experimental: as §1

Fusarium solani 18749 = experiment: MIC susceptibility testing (CLSI M38-A2); type: cell-based; details: Fusarium solani, 18749, 48 h, read-out: Voriconazole MIC
Experimental: as §1

Mucor racemosus 27784 = experiment: MIC susceptibility testing (CLSI M38-A2); type: cell-based; details: Mucor racemosus, 27784, 24 h, read-out: Voriconazole MIC
Experimental: as §1

Mucor fragdis 27782 = experiment: MIC susceptibility testing (CLSI M38-A2); type: cell-based; details: Mucor, 27782, 24 h, read-out: Voriconazole MIC
Experimental: as §1

Rhizopus oryzae 28403 = experiment: MIC susceptibility testing (CLSI M38-A2); type: cell-based; details: Rhizopus arrhizus, 28403, 24 h, read-out: Voriconazole MIC
Experimental: as §1

[15] = system: Aspergillus fumigatus 28434; experiment: MIC susceptibility testing (CLSI M38-A2); type: cell-based; details: Aspergillus fumigatus, 28434, 48 h, read-out: Voriconazole MIC
Experimental: as §1

[16] = system: Aspergillus fumigatus 28435; experiment: MIC susceptibility testing (CLSI M38-A2); type: cell-based; details: Aspergillus fumigatus, 28435, 48 h, read-out: Voriconazole MIC
Experimental: as §1

Aspergillus flavus 28445 = experiment: MIC susceptibility testing (CLSI M38-A2); type: cell-based; details: Aspergillus flavus, 28445, 48 h, read-out: Voriconazole MIC
Experimental: as §1

Fusarium oxysporum 27718 = experiment: MIC susceptibility testing (CLSI M38-A2); type: cell-based; details: Fusarium oxysporum, 27718, 48 h, read-out: Voriconazole MIC
Experimental: as §1

[17] = system: Aspergillus fumigatus 28436; experiment: MIC susceptibility testing (CLSI M38-A2); type: cell-based; details: Aspergillus fumigatus, 28436, 48 h, read-out: Voriconazole MIC
Experimental: as §1

[18] = system: Rhizopus microsporus 27785; experiment: MIC susceptibility testing (CLSI M38-A2); type: cell-based; details: Rhizopus microsporus, 27785, 24 h, read-out: Voriconazole MIC
Experimental: as §1

Aspergillus flavus 28517 = experiment: MIC susceptibility testing (CLSI M38-A2); type: cell-based; details: Aspergillus flavus, 28517, 48 h, read-out: Voriconazole MIC
Experimental: as §1

Aspergillus flavus 28455 = experiment: MIC susceptibility testing (CLSI M38-A2); type: cell-based; details: Aspergillus flavus, 28455, 48 h, read-out: Voriconazole MIC
Experimental: as §1

[19] = system: Mucor circinelloides 19445; experiment: MIC susceptibility testing (CLSI M38-A2); type: cell-based; details: Mucor circinelloides, 19445, 24 h, read-out: Voriconazole MIC
Experimental: as §1

F-actin [20] = molecular target: T1, F-actin (Oryctolagus cuniculus, UniProt P68135); experiment: Pyrene labeled actin depolymerization assay; type: biochemical; set-up: purchased Cytoskeleton, Inc. (Denver, CO) BK003; details: 5 μM
Experimental: (§2) Actin polymerization and depolymerization assays were performed using the Actin polymerization biochem kit (#BK003; Cytoskeleton, Inc. Denver, CO) following the manufacturer's instructions with some modifications. Briefly, for the polymerization assay, G-actin stock solution was made at 0.2 mg/mL instead of 0.4 mg/mL. For the depolymerization assay, F-actin stock solution was diluted 9-fold instead of 5-fold. […] The experiments were done in duplicate.

actin = molecular target: T2, actin (Oryctolagus cuniculus, UniProt P68135); experiment: Pyrene labeled actin polymerization assay; type: biochemical; details: 5 μM; approximately one hour after incubation in the polymerization buffer
T2 construct: purchased Cytoskeleton, Inc. (Denver, CO) BK003
Experimental: as §2

F-actin [21] = molecular target: T1, F-actin; set-up: Purified rabbit skeletal muscle filamentous actin (AKF99); purchased Cytoskeleton Inc. (Denver, CO) AKF99; host or cells: rabbit skeletal muscle; details: co-sedimentation assay, published previously (Ravichandran et al.), read-out: Kd, binding to actin; cited from earlier work

Compound: OC(Cn1cncn1)(Cn1cncn1)c1ccc(F)cc1F [Fluconazole]
- MIC / inhibitory concentrations [1]: ≥ 32 µg/mL
- MIC ([2]; Trichophyton rubrum, 11199, read-out: Fluconazole MIC): 0.25 µg/mL (≈ 0.816 µM)
- MIC ([3]; Trichophyton mentagrophytes, 10207, read-out: Fluconazole MIC): > 16 µg/mL
- MIC ([4]; Trichophyton rubrum, 28659, read-out: Fluconazole MIC): 2 µg/mL (≈ 6.53 µM)
- MIC ([5]; Trichophyton mentagrophytes, 28556, read-out: Fluconazole MIC): > 16 µg/mL
- MIC ([6]; Trichophyton mentagrophytes, 28641, read-out: Fluconazole MIC): 16 µg/mL (≈ 52.2 µM)
- MIC ([7]; Trichophyton rubrum, 28658, read-out: Fluconazole MIC): 2 µg/mL (≈ 6.53 µM)
- MIC (Candida albicans 23512): 32 µg/mL (≈ 104 µM)
- MIC (Candida krusei 28415): 64 µg/mL (≈ 209 µM)
- MIC (Candida tropicalis 28272): 0.125 µg/mL (≈ 0.408 µM)
- MIC (Candida krusei 9541): 16 µg/mL (≈ 52.2 µM)
- MIC (Candida glabrata 27243): 64 µg/mL (≈ 209 µM)
- MIC [8]: 0.25 µg/mL (≈ 0.816 µM)
- MIC (Candida tropicalis 28478): 0.125 µg/mL (≈ 0.408 µM)
- MIC (Candida glabrata 28271): > 64 µg/mL
- MIC (Candida albicans 28200): 8 µg/mL (≈ 26.1 µM)
- MIC (Candida krusei 28570): 16 µg/mL (≈ 52.2 µM)
- MIC [9]: 4 µg/mL (≈ 13.1 µM)
- MIC [10]: 0.25 µg/mL (≈ 0.816 µM)
- MIC (Candida albicans 28102): 0.125 µg/mL (≈ 0.408 µM)
- MIC [11]: 4 µg/mL (≈ 13.1 µM)
- MIC [12]: 2 µg/mL (≈ 6.53 µM)
- MIC [13]: 0.125 µg/mL (≈ 0.408 µM)
- MIC (Candida glabrata 25742): 4 µg/mL (≈ 13.1 µM)
- MIC (Candida tropicalis 9624): 0.25 µg/mL (≈ 0.816 µM)

Compound: C[C@@H](c1ncncc1F)[C@](O)(Cn1cncn1)c1ccc(F)cc1F [Voriconazole]
- MIC [14]: 16 µg/mL (≈ 45.8 µM)
- MIC ([2]; Trichophyton rubrum, 11199, 96 h, read-out: Voriconazole MIC): 0.008 µg/mL (≈ 0.0229 µM)
- MIC (Fusarium solani 28386): > 16 µg/mL
- MIC (Fusarium solani 18749): > 16 µg/mL
- MIC (Mucor racemosus 27784): > 16 µg/mL
- MIC (Mucor fragdis 27782): > 16 µg/mL
- MIC (Rhizopus oryzae 28403): > 16 µg/mL
- MIC ([3]; Trichophyton mentagrophytes, 10207, 96 h, read-out: Voriconazole MIC): 0.25 µg/mL (≈ 0.716 µM)
- MIC [15]: 1 µg/mL (≈ 2.86 µM)
- MIC ([4]; Trichophyton rubrum, 28659, 96 h, read-out: Voriconazole MIC): 0.03 µg/mL (≈ 0.0859 µM)
- MIC [16]: 1 µg/mL (≈ 2.86 µM)
- MIC ([5]; Trichophyton mentagrophytes, 28556, 96 h, read-out: Voriconazole MIC): 0.06 µg/mL (≈ 0.172 µM)
- MIC (Aspergillus flavus 28445): 2 µg/mL (≈ 5.73 µM)
- MIC (Fusarium oxysporum 27718): > 16 µg/mL
- MIC [17]: 1 µg/mL (≈ 2.86 µM)
- MIC [18]: > 16 µg/mL
- MIC ([6]; Trichophyton mentagrophytes, 28641, 96 h, read-out: Voriconazole MIC): 0.06 µg/mL (≈ 0.172 µM)
- MIC ([7]; Trichophyton rubrum, 28658, 96 h, read-out: Voriconazole MIC): 0.03 µg/mL (≈ 0.0859 µM)
- MIC (Aspergillus flavus 28517): 1 µg/mL (≈ 2.86 µM)
- MIC (Aspergillus flavus 28455): 2 µg/mL (≈ 5.73 µM)
- MIC [19]: > 16 µg/mL

Compound: phalloidin
- effect on polymerization or depolymerization of actin (F-actin [20]): completely blocked the depolymerization of F-actin
- pyrene fluorescent reading following incubation in depolymerization buffer (F-actin [20]; no drug control at 2,500 AU): above 5,000 AU
- pyrene fluorescence reading, plateau in polymerization buffer (actin): around 19,000 AU
- Kd (F-actin [21]): ~8 nM and 8 nM
